The source of these data is BindingDB's records for doi:10.1016/S0960-894X(01)00040-3 (Glaxosmithkline, 2001).

The target of this assay is Tyrosine--tRNA ligase (Staphylococcus aureus). Briefly: Inhibitory activity against Staphylococcus aureus tyrosyl tRNA synthetase (YRS) using aminoacylation assay.

Each structure is given as a SMILES string.

The IC50 is the concentration that gives 50% inhibition. The low end stands for greater potency in that assay, the high end for weaker potency in that assay. Take `CCCCOC(=O)C(NC(=O)[C@@H](N)Cc1ccc(O)cc1)[C@H]1C[C@@H](O)[C@@H](O)[C@@H](C)O1` (stereo partly drawn) [[2-Amino-3-((S)-4-hydroxy-phenyl)-propionylamino]-((2R,4R,5R,6R)-4,5-dihydroxy-6-methyl-tetrahydro-pyran-2-yl)-acetic acid butyl ester]: 3.6 nM corresponded to half-maximal inhibition (IC50). In the case of `CCCCOC(=O)[C@@H](NC(=O)[C@@H](N)Cc1ccc(O)cc1)[C@@H]1O[C@H](C)[C@H](O)[C@H](O)[C@H]1O` [[2-Amino-3-((S)-4-hydroxy-phenyl)-propionylamino]-((2S,3R,4S,5R,6R)-3,4,5-trihydroxy-6-methyl-tetrahydro-pyran-2-yl)-acetic acid (S)-butyl ester], the concentration for half-maximal inhibition (IC50) was 0.8 nM. Compound `N[C@@H](Cc1ccc(O)cc1)C(=O)NC(C(=O)O)[C@@H]1O[C@H](CO)[C@H](O)[C@H](O)[C@H]1O` (stereo partly drawn) [[2-Amino-3-((S)-4-hydroxy-phenyl)-propionylamino]-((2S,3R,4R,5R,6R)-3,4,5-trihydroxy-6-hydroxymethyl-tetrahydro-pyran-2-yl)-acetic acid] gave a concentration for half-maximal inhibition (IC50) of 190 nM.
